Test system: female BALB/c or CD-1 mice
Assay: Intestinal motility model in mice (gastrointestinal transit of red dye)
Format: in vivo
Conditions: mice fasted 24 h, red dye 1 h after treatment, measured 20 min later
Description: Intestinal Motility Model:
An intestinal motility model in mice may be used to evaluate of antimuscarinic compounds of formulae I-V as potential treatment for irritable bowel syndrome. In the studies, female BALB/c or CD-1 mice are fasted for 24 hours and then treated orally with one or more compounds of formulae I-V or vehicle. One hour after of treatment, the mice receive a red dye mixture via gastric gavage. Twenty minutes later, the animals are euthanized and the small intestine is removed. Gastrointestinal transit (GIT) is calculated using the measured length of the small intestine from the pyloric sphincter to the ileocecal junction and the distance traveled by the red dye front. Percent inhibition is indicated above bars.

SMILES	inhibition of gastrointestinal transit (GIT) (oral dose 10 mg/kg)	inhibition of gastrointestinal transit (GIT) (oral dose 30 mg/kg)	inhibition of gastrointestinal transit (GIT) (oral dose 60 mg/kg)
Cc1ccc(O)c([C@H](CC[N+](C)(C(C)C)C(C)C)c2ccccc2)c1 [Example 3, (3R)-3-(2-Hydroxy-5-methylphenyl)-N,N-diisopropyl-N-methyl-3-phenylpropan-1-aminium bromide]	17%	29%	28%
C[N+]1(CCc2ccc3c(c2)CCO3)CC[C@@H](C(C(N)=O)(c2ccccc2)c2ccccc2)C1.[I-] (stereo partly drawn) [Example 27, (3S)-3-(2-amino-2-oxo-1,1-diphenylethyl)-1-[2-(2,3-dihydro-1-benzofuran-5-yl)ethyl]-1-methylpyrrolidinium iodide]	13%	20%	30%
NC(=O)C(c1ccccc1)(c1ccccc1)[C@@H]1CCN(CCc2ccc3c(c2)CCO3)C1 [reference compound]		about 15%	about 15%
